# According to patent US10689362B2, “Quinoxaline compounds as type III receptor tyrosine kinase inhibitors” (Development Center for Biotechnology, priority 2016, dated 2020):
# Assays:
# [1] = test system: MV4-11 human acute myeloid leukemia cell with FLT3-ITD mutation; experiment: MV4-11 cell proliferation assay (CellTiter-96); assay type: cell-based; settings: Cytotoxicity, MV4-11 cells, 72 hours
# Procedure, shortened: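 MV4-11 cells (FLT3-ITD, FLT3-dependent growth) seeded at 6500 cells/well, incubated overnight at 37° C., 5% CO2, then exposed to increasing compound concentrations for 72 hours. Viability read by CellTiter96 AQueous One reagent (4 hours), absorbance at 490 nm.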
# CSF-1R kinase = CSF-1R kinase (Homo sapiens (Human), UniProt P07333); experiment: CSF-1R kinase assay (AlphaScreen); assay type: biochemical; settings: class symbol
# Protocol: Inhibition of CSF-1R kinase activity by a test compound disclosed herein was estimated by AlphaScreen (PerkinElmer). […] Reactions were incubated at 30° C. for 45 min and stopped by adding 5 μL of 50 mM EDTA. Analysis of resulting product using an AlphaScreen kit, and counted with Enspire Alpha (PerkinElmer). […] The IC50 values of quinoxaline compounds of this invention against CSF-1R kinase were determined using the GraphPad Prism 5 software.
# FLT3 kinase = FLT3 kinase (Homo sapiens (Human), UniProt P36888); experiment: FLT3 kinase assay (radiometric); assay type: biochemical; settings: bound
# Procedure, shortened: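 Recombinant FLT3 (5 ng) phosphorylating poly(Glu4:Tyr1) (2 μg) with 10 μM ATP plus [^33P]-ATP in MOPS pH 7.0 buffer, 4% DMSO final, 60 min at 30° C. Reaction stopped with phosphoric acid, filter-captured and scintillation-counted; IC50 derived from dose-response.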
# [2] = test system: THP-1 human acute monocytic leukemia cell harboring NRAS G12D mutation; experiment: THP-1 cell proliferation assay (counter screen, CellTiter-96); assay type: cell-based; settings: Cytotoxicity, THP-1 cells (counter screen), 72 hours
# Procedure, shortened: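 THP-1 cells, RTK-independent owing to NRAS G12D, seeded at 5000/well, incubated overnight at 37 °C/5% CO2, then exposed to increasing compound concentrations for 72 h. CellTiter96 AQueous One reagent added for 4 h; viability from absorbance at 490 nm.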
# [3] = test system: CSF-1-dependent M-NFS-60 mouse myeloid leukemia cell; experiment: M-NFS-60 cell proliferation assay (CellTiter-96); assay type: cell-based; settings: Cytotoxicity, M-NFS-60 cells, 72 hours
# Procedure, shortened: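 CSF-1-dependent M-NFS-60 cells seeded at 2000 cells/well, settled overnight at 37 °C, 5% CO2, then exposed to increasing compound concentrations for 72 h. Viability read by CellTiter 96 AQueous One reagent (4 h) at 490 nm absorbance.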
# c-KIT kinase = c-KIT kinase (Homo sapiens (Human), UniProt P10721); experiment: c-KIT kinase assay (radiometric); assay type: biochemical; settings: class symbol
# Procedure, shortened: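 Recombinant c-Kit (20 ng) with 2 μg Poly-(Glu4:Tyr1) in MOPS pH 7.0 buffer with MgCl2/MnCl2, 10 μM ATP plus [^33P]-ATP, 4% DMSO final, 60 min at 30° C. Stopped with phosphoric acid, filter-captured and scintillation counted; IC50 from curve fit.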
# [4] = test system: osteoclast precursors (osteoclast differentiation); experiment: Osteoclast tartrate-resistant acid phosphatase assay; assay type: cell-based; settings: 168 h, at 1 μM treatment, 7 days, RANKL and M-CSF, read-out: inhibition activity against osteoclast differentiation
# Procedure, shortened: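 Differentiation inhibition was scored at 1 μM compound in duplicate, using supernatant TRAP activity read at 550 nm with an acid phosphatase kit.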
# PDGFRβ kinase = PDGFRβ kinase (Homo sapiens (Human), UniProt P09619); experiment: PDGFRβ kinase assay (radiometric); assay type: biochemical
# Procedure, shortened: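 Radiometric assay: recombinant PDGFRβ with poly(Glu4:Tyr1) in MOPS pH 7.0 buffer containing Mg2+/Mn2+, 10 μM ATP plus [33P]-ATP, and compound at 4% DMSO final. Incubated 60 min at 30° C, stopped with phosphoric acid, filter-captured and scintillation-counted. IC50 from curve fitting.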
# [5] = test system: Kasumi-1 human acute myeloid leukemia cell with c-KIT N822K activating mutation; experiment: Kasumi-1 cell proliferation assay (CellTiter-96); assay type: cell-based; settings: Cytotoxicity, Kasumi-1 cells, 72 hours
# Procedure, shortened: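 Kasumi-1 cells, seeded at 64000 cells/well and incubated overnight at 37 °C, were exposed to increasing compound concentrations for 72 h. Viability was measured by CellTiter96 AQueous One reagent (4 h) and absorbance at 490 nm.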
# Sequence of PDGFRβ kinase (P09619 33-1106): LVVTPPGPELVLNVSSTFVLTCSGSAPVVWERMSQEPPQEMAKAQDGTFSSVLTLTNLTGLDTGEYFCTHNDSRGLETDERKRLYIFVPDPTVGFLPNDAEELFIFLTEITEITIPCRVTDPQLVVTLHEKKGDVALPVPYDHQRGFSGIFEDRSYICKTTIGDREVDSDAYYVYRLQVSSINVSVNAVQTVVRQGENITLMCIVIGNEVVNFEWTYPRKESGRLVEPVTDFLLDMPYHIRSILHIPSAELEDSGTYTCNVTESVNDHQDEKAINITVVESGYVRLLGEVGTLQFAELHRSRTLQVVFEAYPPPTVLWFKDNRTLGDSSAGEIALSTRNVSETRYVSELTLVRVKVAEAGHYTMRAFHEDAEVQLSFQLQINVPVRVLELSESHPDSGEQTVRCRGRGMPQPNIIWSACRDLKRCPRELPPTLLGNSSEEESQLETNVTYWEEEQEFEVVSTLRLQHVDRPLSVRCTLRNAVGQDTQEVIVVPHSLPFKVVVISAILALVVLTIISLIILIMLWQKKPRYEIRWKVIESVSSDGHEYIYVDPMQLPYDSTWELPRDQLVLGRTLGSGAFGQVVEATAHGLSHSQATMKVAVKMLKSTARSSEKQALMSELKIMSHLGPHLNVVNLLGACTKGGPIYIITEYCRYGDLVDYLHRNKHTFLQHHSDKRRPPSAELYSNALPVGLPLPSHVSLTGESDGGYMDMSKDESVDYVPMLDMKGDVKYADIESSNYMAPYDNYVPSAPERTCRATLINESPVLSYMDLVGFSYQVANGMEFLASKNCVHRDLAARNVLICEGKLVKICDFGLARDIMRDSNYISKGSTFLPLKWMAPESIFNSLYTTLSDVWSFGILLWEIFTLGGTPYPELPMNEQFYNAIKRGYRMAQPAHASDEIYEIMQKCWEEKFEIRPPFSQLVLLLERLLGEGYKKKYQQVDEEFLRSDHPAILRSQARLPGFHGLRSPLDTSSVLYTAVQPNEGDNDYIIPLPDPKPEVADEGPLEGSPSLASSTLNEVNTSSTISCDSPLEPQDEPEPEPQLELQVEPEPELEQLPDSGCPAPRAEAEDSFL
# Sequence of CSF-1R kinase (P07333 20-972): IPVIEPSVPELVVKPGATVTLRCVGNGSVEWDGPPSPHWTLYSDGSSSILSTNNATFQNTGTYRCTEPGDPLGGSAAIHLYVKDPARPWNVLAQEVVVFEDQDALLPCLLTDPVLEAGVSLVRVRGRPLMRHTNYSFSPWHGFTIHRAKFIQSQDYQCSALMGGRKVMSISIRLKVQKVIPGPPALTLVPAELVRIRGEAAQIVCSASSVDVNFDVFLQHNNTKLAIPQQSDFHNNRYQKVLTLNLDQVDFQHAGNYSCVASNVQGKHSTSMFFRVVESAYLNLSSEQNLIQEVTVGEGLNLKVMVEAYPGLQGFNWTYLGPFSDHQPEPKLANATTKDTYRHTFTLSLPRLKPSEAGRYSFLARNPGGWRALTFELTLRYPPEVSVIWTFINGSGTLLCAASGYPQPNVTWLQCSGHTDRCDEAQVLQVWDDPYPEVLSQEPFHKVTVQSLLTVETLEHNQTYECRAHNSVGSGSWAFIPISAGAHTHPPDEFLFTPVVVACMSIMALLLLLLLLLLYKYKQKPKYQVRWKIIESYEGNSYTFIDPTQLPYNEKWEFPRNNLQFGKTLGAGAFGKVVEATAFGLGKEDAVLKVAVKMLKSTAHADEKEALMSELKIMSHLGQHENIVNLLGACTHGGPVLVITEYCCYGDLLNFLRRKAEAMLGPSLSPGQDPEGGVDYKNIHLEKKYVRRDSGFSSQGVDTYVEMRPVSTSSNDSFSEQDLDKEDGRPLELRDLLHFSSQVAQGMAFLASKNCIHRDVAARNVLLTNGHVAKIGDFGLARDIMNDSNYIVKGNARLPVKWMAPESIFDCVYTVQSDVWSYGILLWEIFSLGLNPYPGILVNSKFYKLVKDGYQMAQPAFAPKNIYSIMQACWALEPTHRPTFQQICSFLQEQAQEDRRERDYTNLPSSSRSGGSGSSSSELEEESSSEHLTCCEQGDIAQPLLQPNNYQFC
# Sequence of c-KIT kinase (P10721 26-976): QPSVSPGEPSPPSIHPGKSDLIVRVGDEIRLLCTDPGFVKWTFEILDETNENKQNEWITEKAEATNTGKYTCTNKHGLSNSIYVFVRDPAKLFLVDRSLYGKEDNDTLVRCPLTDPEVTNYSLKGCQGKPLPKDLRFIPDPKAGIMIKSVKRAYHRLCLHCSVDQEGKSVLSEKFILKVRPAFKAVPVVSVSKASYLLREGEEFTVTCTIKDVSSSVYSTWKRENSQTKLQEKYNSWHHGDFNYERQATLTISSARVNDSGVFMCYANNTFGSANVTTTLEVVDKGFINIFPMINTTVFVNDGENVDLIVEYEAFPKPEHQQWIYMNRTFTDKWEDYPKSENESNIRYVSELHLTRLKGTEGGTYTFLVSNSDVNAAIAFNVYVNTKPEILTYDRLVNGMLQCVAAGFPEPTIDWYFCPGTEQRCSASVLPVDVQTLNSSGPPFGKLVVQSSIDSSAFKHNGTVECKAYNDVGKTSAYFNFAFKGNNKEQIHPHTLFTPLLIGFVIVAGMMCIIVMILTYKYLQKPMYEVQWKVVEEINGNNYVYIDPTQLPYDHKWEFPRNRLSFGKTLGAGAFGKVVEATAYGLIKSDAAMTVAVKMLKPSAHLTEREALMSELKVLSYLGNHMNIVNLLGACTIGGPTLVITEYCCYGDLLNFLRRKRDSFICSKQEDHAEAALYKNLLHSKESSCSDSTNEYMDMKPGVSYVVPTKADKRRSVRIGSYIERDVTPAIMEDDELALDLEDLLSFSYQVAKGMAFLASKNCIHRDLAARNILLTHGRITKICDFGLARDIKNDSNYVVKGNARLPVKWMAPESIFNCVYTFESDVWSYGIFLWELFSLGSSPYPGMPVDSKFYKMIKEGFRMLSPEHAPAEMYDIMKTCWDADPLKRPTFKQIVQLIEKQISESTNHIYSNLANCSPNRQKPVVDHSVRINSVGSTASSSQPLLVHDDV
# Sequence of FLT3 kinase (P36888 27-993): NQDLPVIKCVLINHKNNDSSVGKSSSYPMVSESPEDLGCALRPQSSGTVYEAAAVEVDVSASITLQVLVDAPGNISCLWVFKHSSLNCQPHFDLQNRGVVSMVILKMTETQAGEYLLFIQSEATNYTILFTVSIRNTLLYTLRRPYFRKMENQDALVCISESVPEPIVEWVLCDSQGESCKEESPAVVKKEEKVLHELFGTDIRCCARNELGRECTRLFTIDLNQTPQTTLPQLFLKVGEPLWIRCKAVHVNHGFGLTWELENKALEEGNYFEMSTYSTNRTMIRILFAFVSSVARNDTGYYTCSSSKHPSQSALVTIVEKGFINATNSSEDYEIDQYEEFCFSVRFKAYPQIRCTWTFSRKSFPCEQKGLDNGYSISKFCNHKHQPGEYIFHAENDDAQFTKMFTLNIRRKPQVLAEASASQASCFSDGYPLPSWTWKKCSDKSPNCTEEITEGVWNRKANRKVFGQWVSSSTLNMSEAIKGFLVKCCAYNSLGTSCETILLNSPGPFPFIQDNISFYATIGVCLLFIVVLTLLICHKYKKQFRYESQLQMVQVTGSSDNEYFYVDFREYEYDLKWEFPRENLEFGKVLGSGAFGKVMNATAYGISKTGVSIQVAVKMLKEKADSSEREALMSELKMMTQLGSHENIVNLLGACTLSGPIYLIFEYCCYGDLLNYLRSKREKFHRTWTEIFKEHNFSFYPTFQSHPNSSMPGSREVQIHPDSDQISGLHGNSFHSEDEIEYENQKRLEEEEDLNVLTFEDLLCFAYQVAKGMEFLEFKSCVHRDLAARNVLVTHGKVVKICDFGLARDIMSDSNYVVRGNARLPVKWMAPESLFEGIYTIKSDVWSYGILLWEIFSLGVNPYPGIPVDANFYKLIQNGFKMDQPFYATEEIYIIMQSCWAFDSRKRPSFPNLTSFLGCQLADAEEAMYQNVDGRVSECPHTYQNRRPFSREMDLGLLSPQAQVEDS
Compound,IC50 [1],IC50 (CSF-1R kinase),IC50 (FLT3 kinase),IC50 [2],IC50 [3],IC50 (c-KIT kinase),inhibition at 1 µM [4],IC50 (PDGFRβ kinase; bound),IC50 [5],IC50 (PDGFRβ kinase; class symbol)
"COc1ccc(COc2ccc(Nc3ccc4ncc(N5CCOCC5)nc4c3C#N)cc2OC)cc1F [Example 93, 6-((4-((3-fluoro-4-methoxybenzyl)oxy)-3-methoxy-phenyl)amino)-3-morpholinoquinoxaline-5-carbonitrile]",> 10 µM,< 0.1 µM,> 1 µM,> 10 µM,< 0.3 µM,< 0.1 µM,> 50%,> 1 µM,< 0.3 µM,–
"COc1cc(Nc2ccc3ncc(N4CCOCC4)nc3c2C#N)ccc1OCc1ccc(Cl)cc1 [Example 49, 6-((4-((4-chlorobenzyl)oxy)-3-methoxyphenyl)amino)-3-morpholinoquinoxaline-5-carbonitrile]",1 to 10 µM,< 0.1 µM,> 1 µM,> 10 µM,< 0.3 µM,< 0.1 µM,> 50%,> 1 µM,0.3 to 1 µM,–
"COc1cc(Nc2ccc3ncc(N4CCOCC4)nc3c2C#N)ccc1OCc1ccc(OC(F)(F)F)cc1 [Example 32, 6-((3-methoxy-4-((4-(trifluoromethoxy)benzyl)oxy)phenyl)amino)-3-morpholinoquinoxaline-5-carbonitrile]",1 to 10 µM,< 0.1 µM,> 1 µM,> 10 µM,< 0.3 µM,< 0.1 µM,> 50%,–,0.3 to 1 µM,0.1 to 0.3 µM
"COc1cc(Nc2ccc3ncc(C4CCOCC4)nc3c2C#N)ccc1OCc1ccc(C)nc1 [Example 114, 6-((3-methoxy-4-((6-methylpyridin-3-yl)methoxy)phenyl)amino)-3-(tetrahydro-2H-pyran-4-yl)quinoxaline-5-carbonitrile]",1 to 10 µM,< 0.1 µM,> 1 µM,> 10 µM,1 to 10 µM,0.3 to 1 µM,> 50%,> 1 µM,1 to 10 µM,–
"COc1cc(Nc2ccc3ncc(N4CCOCC4)nc3c2C#N)cnc1OCc1ccc(C)nc1 [Example 143, 6-((5-methoxy-6-((6-methylpyridin-3-yl)methoxy)pyridin-3-yl)amino)-3-morpholinoquinoxaline-5-carbonitrile]",1 to 10 µM,< 0.1 µM,> 1 µM,> 10 µM,< 0.3 µM,0.3 to 1 µM,> 50%,> 1 µM,> 10 µM,–
